Results taken from patent publication US20230071840A1, “HETEROCYCLIC GLP-1 AGONISTS” (Gasherbrum Bio, Inc., priority 2020, published 2023).
pEC50: −log10 of the molar value.

Target: GLP-1 Receptor (Homo sapiens, UniProt P43220)
Experiment: GLP-1R agonist cAMP stimulation assay (HEK293/GLP1R/CRE-LUC cells, cAMP dynamic 2 kit)
Assay type: cell-based
Conditions: HEK293/CRE-Luc cell line stably expressing the GLP-1 Receptor; 30 min incubation at 37° C.; read-out: GLP1R cAMP Stimulation DR: EC50
Protocol: Activation of GLP-1 receptor is known to stimulate cyclic AMP (cAMP) production in cells which indicates primary coupling to the Gas subunit of the G protein heterotrimeric complex.
To optimize functional activity directed toward Gas coupling, a HEK293/CRE-Luc cell line developed by HDB stably expressing the GLP-1 Receptor was used. […] Seal the plate and incubate at 37° C. with 5% CO2 for 30 min.
After incubation the cAMP assay signal was generated using cAMP dynamic 2 Kit (Cisbio). 5 μL cAMP-d2 working solution was added to each well, followed with 5 μL Anti-cAMP antibody-cryptate working solution added to each well using ThermoFisher Multidrop Combi. Incubate at room temperature for 1 hour protected from light.
% Activity=[…]×(mean RLU of test sample−mean RLU of vehicle control)/(mean RLU of MAX control−mean RLU of vehicle control))

GLP-1 Receptor, sequence (P43220 24-463, species assumed): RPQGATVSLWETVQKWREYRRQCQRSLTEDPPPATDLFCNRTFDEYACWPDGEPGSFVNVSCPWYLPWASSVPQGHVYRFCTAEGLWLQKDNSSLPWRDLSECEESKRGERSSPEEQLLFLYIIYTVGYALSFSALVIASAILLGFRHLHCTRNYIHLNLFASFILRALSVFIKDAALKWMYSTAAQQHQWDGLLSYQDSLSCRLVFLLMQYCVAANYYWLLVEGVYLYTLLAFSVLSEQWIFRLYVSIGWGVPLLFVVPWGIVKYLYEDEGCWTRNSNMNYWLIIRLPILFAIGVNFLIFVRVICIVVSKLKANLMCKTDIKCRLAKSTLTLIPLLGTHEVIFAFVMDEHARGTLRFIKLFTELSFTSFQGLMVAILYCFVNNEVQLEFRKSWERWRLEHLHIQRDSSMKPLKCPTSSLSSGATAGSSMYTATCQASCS

SMILES | pEC50
N#CC1(Cn2c(C[C@H]3CC[C@H](Oc4ccnc(Cc5ccc(Cl)cc5)n4)CC3)nc3ccc(C(=O)O)nc32)CC1 [Compound 178a, 3-[(1-cyanocyclopropyl)methyl]-2-{[trans-4-({2-[(4-chlorophenyl)methyl]pyrimidin-4-yl}oxy)cyclohexyl]methyl}-3H-imidazo[4,5-b]pyridine-5-carboxylic acid] | 10.00
O=C(O)c1ccc2nc(CN3CCC(Oc4cccc(Cn5ccc(Cl)cc5=O)n4)CC3)n(C[C@@H]3CCO3)c2n1 [Compound 149a, 2-{[4-({6-[(4-chloro-2-oxo-1,2-dihydropyridin-1-yl)methyl]pyridin-2-yl}oxy)piperidin-1-yl]methyl}-3-{[(2S)-oxetan-2-yl]methyl}-3H-imidazo[4,5-b]pyridine-5-carboxylic acid] | 8.25
O=C(O)c1ccc2nc(CN3CC=C(c4cnc5ccc(Cc6ccc(Cl)cc6F)nn45)CC3)n(C[C@@H]3CCO3)c2n1 [Compound 192a, 2-[(4-{6-[(4-chloro-2-fluorophenyl)methyl]imidazo[1,2-b]pyridazin-3-yl}-1,2,3,6-tetrahydropyridin-1-yl)methyl]-3-{[(2S)-oxetan-2-yl]methyl}-3H-imidazo[4,5-b]pyridine-5-carboxylic acid] | 6.89
O=C(O)c1ccc2nc(CN3CCC(Oc4cc(C(F)(F)F)cc(Cc5ccc(Cl)cc5)n4)CC3)n(C[C@@H]3CCO3)c2n1 [Compound 156a, 2-{[4-({6-[(4-chlorophenyl)methyl]-4-(trifluoromethyl)pyridin-2-yl}oxy)piperidin-1-yl]methyl}-3-{[(2S)-oxetan-2-yl]methyl}-3H-imidazo[4,5-b]pyridine-5-carboxylic acid] | 7.40
Cc1cc(Cc2ccc(Cl)cc2)nc(OC2CCN(Cc3nc4ccc(C(=O)O)nc4n3C[C@@H]3CCO3)CC2)c1 [Compound 154a, 2-{[4-({6-[(4-chlorophenyl)methyl]-4-methylpyridin-2-yl}oxy)piperidin-1-yl]methyl}-3-{[(2S)-oxetan-2-yl]methyl}-3H-imidazo[4,5-b]pyridine-5-carboxylic acid] | 7.62
O=C(O)c1ccc2nc(CN3CCC(c4cccc5cn(Cc6ccc(Cl)cc6F)nc45)CC3)n(C[C@@H]3CCO3)c2n1 [Compound 142a, (S)-2-((4-(2-(4-chloro-2-fluorobenzyl)-2H-indazol-7-yl)piperidin-1-yl)methyl)-3-(oxetan-2-ylmethyl)-3H-imidazo[4,5-b]pyridine-5-carboxylic acid] | 8.77
NC(=O)c1ccc2nc(CN3CCC(Oc4ccnc(Cc5ccc(Cl)cc5)n4)CC3)n(C[C@@H]3CCO3)c2n1 [Compound 200a, (S)-2-((4-((2-(4-chlorobenzyl)pyrimidin-4-yl)oxy)piperidin-1-yl)methyl)-3-(oxetan-2-ylmethyl)-3H-imidazo[4,5-b]pyridine-5-carboxamide] | 7.07
O=C(O)c1ccc2nc(CN3CCC(Oc4cc(Cl)cc(Cc5ccc(Cl)cc5)n4)CC3)n(C[C@@H]3CCO3)c2n1 [Compound 155a, 2-{[4-({4-chloro-6-[(4-chlorophenyl)methyl]pyridin-2-yl}oxy)piperidin-1-yl]methyl}-3-{[(2S)-oxetan-2-yl]methyl}-3H-imidazo[4,5-b]pyridine-5-carboxylic acid] | 8.42
O=C(O)c1ccc2nc(CN3CCC(Cc4cccc(Oc5ccc(Cl)cc5F)n4)CC3)n(C[C@@H]3CCO3)c2n1 [Compound 121a, 2-[(4-{[6-(4-chloro-2-fluorophenoxy)pyridin-2-yl]methyl}piperidin-1-yl)methyl]-3-{[(2S)-oxetan-2-yl]methyl}-3H-imidazo[4,5-b]pyridine-5-carboxylic acid] | 8.19
O=C(O)c1ccc2nc(CN3CCC(Oc4ccnc(Cc5ccc(Cl)cc5)c4)CC3)n(C[C@@H]3CCO3)c2n1 [Compound 159a, 2-{[4-({2-[(4-chlorophenyl)methyl]pyridin-4-yl}oxy)piperidin-1-yl]methyl}-3-{[(2S)-oxetan-2-yl]methyl}-3H-imidazo[4,5-b]pyridine-5-carboxylic acid] | 8.64
O=C(O)c1ccc2nc(CN3CCC(Oc4ccnc(Cc5ccc(Cl)c(Cl)c5)n4)CC3)n(C[C@@H]3CCO3)c2n1 [Compound 167a, 2-{[4-({2-[(3,4-dichlorophenyl)methyl]pyrimidin-4-yl}oxy)piperidin-1-yl]methyl}-3-{[(2S)-oxetan-2-yl]methyl}-3H-imidazo[4,5-b]pyridine-5-carboxylic acid] | 9.89
Cn1c(C[C@H]2CC[C@H](Oc3ccnc(Cc4ccc(Cl)cc4)n3)CC2)nc2ccc(C(=O)O)nc21 [Compound 180a, 3-methyl-2-{[trans-4-({2-[(4-chlorophenyl)methyl]pyrimidin-4-yl}oxy)cyclohexyl]methyl}-3H-imidazo[4,5-b]pyridine-5-carboxylic acid] | 8.64
O=C(O)c1ccc2nc(CN3CCC(Oc4cnn(Cc5ccc(Cl)cc5F)c4)CC3)n(C[C@@H]3CCO3)c2n1 [Compound 184a, 2-{[4-({1-[(4-chloro-2-fluorophenyl)methyl]-1H-pyrazol-4-yl}oxy)piperidin-1-yl]methyl}-3-{[(2S)-oxetan-2-yl]methyl}-3H-imidazo[4,5-b]pyridine-5-carboxylic acid] | 7.05
O=C(O)c1ccc2nc(CN3CCC(Oc4ccnc(Cc5ccc(Cl)cc5F)n4)C(F)(F)C3)n(C[C@@H]3CCO3)c2n1 (stereo partly drawn) [Compound 168a, 2-{[4-({2-[(4-chloro-2-fluorophenyl)methyl]pyrimidin-4-yl}oxy)-3,3-difluoropiperidin-1-yl]methyl}-3-{[(2S)-oxetan-2-yl]methyl}-3H-imidazo[4,5-b]pyridine-5-carboxylic acid] | 8.92
O=C(O)c1ccc2nc(CN3CCC(Oc4ccnc(Cc5ccc(Cl)cc5F)n4)CC3)n(C[C@@H]3CCO3)c2n1 [Compound 113a, 2-{[4-({2-[(4-chloro-2-fluorophenyl)methyl]pyrimidin-4-yl}oxy)piperidin-1-yl]methyl}-3-{[(2S)-oxetan-2-yl]methyl}-3H-imidazo[4,5-b]pyridine-5-carboxylic acid] | 10.42
Cc1cn(Cc2ccc(Cl)cc2F)nc1OC1CCN(Cc2nc3ccc(C(=O)O)nc3n2C[C@@H]2CCO2)CC1 [Compound 133a, 2-{[4-({1-[(4-chloro-2-fluorophenyl)methyl]-4-methyl-1H-pyrazol-3-yl}oxy)piperidin-1-yl]methyl}-3-{[(2S)-oxetan-2-yl]methyl}-3H-imidazo[4,5-b]pyridine-5-carboxylic acid] | 8.62
O=C(O)c1ccc2nc(CN3CCC(Oc4cccc(Cc5ccccc5Cl)n4)CC3)n(C[C@@H]3CCO3)c2n1 [Compound 126a, (S)-2-((4-((6-(2-chlorobenzyl)pyridin-2-yl)oxy)piperidin-1-yl)methyl)-3-(oxetan-2-ylmethyl)-3H-imidazo[4,5-b]pyridine-5-carboxylic acid] | 9.00
O=C(O)c1ccc2nc(C[C@H]3CC[C@H](Oc4nc(Cc5ccc(Cl)cc5)ncc4F)CC3)n(C[C@@H]3CCO3)c2n1 [Compound 188a, 3-{[(2S)-oxetan-2-yl]methyl}-2-{[trans-4-({2-[(4-chlorophenyl)methyl]-5-fluoropyrimidin-4-yl}oxy)cyclohexyl]methyl}-3H-imidazo[4,5-b]pyridine-5-carboxylic acid] | 10.35

Same assay, conditions: HEK293/CRE-Luc cell line stably expressing the GLP-1 Receptor; 30 min incubation at 37° C.; read-out: GLP1R cAMP Stimulation DR: pEC50 (converted)

SMILES | EC50 [nM]
O=C(O)c1ccc2nc(CN3CCC(Oc4cnn(Cc5ccc(Cl)cc5F)c4)CC3)n(C[C@@H]3CCO3)c2n1 [Compound 184a, 2-{[4-({1-[(4-chloro-2-fluorophenyl)methyl]-1H-pyrazol-4-yl}oxy)piperidin-1-yl]methyl}-3-{[(2S)-oxetan-2-yl]methyl}-3H-imidazo[4,5-b]pyridine-5-carboxylic acid] | 100
